Where a name gives a salt, the structure may show the parent alone.
Key:
TRPV1 receptor = molecular target: T1, TRPV1 receptor (Rattus norvegicus, UniProt O35433); assay: Inhibition of the current induced by capsaicin with regard to rat DRGs (whole cell patch clamp); assay type: cell-based; settings: DRG neuron, capsaicin 1 microM response, rat DRG neurons, read-out: % Inhibition by the DRG patch technique; for inhibition at 0.01 µM: compound at 10 nM; for inhibition at 0.001 µM: compound at 1 nM
T1 construct: The neurons of the DRG naturally express the TRPV1 receptor; endogenous in cells; host or cells: primary culture of newborn rat dorsal root ganglion neurons
Experimental: Test of the Inhibition of the Current Induced by Capsaicin with Regard to Rat DRGs
• Primary culture of rat dorsal root ganglion (DRG) cells:
The neurons of the DRG naturally express the TRPV1 receptor.
Primary cultures of DRGs of newborn rats are prepared from one-day-old rats. Briefly, after dissection, the ganglions are trypsinized and the cells dissociated mechanically by gentle trituration. The cells are resuspended in an Eagle's basal culture medium comprising 10% of fetal calf serum, 25 mM KCl, 2 mM glutamine, 100 μg/ml of gentamicin and 50 ng/ml of NGF and then deposited on glass cover slips covered with laminin (0.25×10^6 cells per cover slip) which are subsequently placed in 12-well Corning dishes. The cells are incubated at 37° C. in a humidified atmosphere comprising 5% of CO2 and 95% of air. Cytosine β-D-arabinoside (1 μM) is added 48 h after culturing, in order to prevent the growth of non-neuronal cells. After culturing for 7-10 days, the cover slips are transferred into experimental chambers for the patch clamp studies.
The measurement chambers (volume 800 μl) comprising the cell preparation are placed on the stage of an inverted microscope (Olympus IMT2) equipped with Hoffman optics (Modulation Contrast, New York) and are observed at a magnification of 400×. The chambers are continuously perfused by gravity (2.5 ml/min) using a distributor of solutions which has 8 inlets, the single outlet of which, composed of a polyethylene tube (opening 500 μm), is placed at least 3 mm from the cell studied. The “whole cell” configuration of the patch clamp technique was used. Borosilicate glass pipettes (resistance 5-10 Mohms) are brought close to the cell using a 3D piezoelectric micromanipulator (Burleigh, PC1000). The overall currents (membrane potential set at −60 mV) are recorded with an Axopatch 1D amplifier (Axon Instruments, Foster City, Calif.) connected to a PC controlled by Pclamp8 software (Axon Instruments). The current plots are recorded on paper and simultaneously recorded digitally (sampling frequency 15 to 25 Hz) and acquired on the hard disk of the PC.
The application of a micromolar capsaicin solution produces an incoming cationic current with regard to the DRG cells (voltage set at […]). In order to minimize the desensitization of the receptors, a minimum interval of one minute between two applications of capsaicin is observed. After a control period (stabilization of the capsaicin alone response), the test compounds are applied alone at a given concentration (concentration of 10 nM or […]) for a period of time of 4 to 5 minutes, during which several capsaicin+compound tests are carried out (obtaining the maximum inhibition). The results are expressed as % of inhibition of the control capsaicin response.

TRPV1 receptors = molecular target: T2, TRPV1 receptors (Mus musculus, UniProt Q704Y3); assay: Mouse corneal irritation test (capsaicin-induced); assay type: in vivo; settings: compound 500 μM, 2 μl local application on cornea 10 minutes before 160 μM capsaicin
T2 construct: from tissue; host or cells: cornea of the living mouse (in vivo)
Experimental: Mouse Corneal Irritation Test
The irritating nature of capsaicin is easily assessed on the cornea since this organ is one of the most innervated by C fibers. In this context, according to preliminary experiments, the application of a very small amount of capsaicin (2 μl at a concentration of 160 μM) at the surface of the cornea of an animal results in a number of kinds of stereotyped behavior related to irritation which are easy to record. These include: blinking of the eye, rubbing of the instilled eye by the ipsilateral front paw, rubbing of the face with the two front paws and scratching of the ipsilateral face by the hind paw. […] Its appearance is furthermore also normal. […] It may be concluded therefrom that the duration of action of capsaicin at these doses is less than 2 minutes.
Summary of the Methodology: […]
In practice, the test product, prepared at 25 mM in DMSO and diluted for its final use in physiological saline with 10% Tween 80 to the stronger concentration of 500 μM, is administered in local application at the surface of the cornea under a volume of 2 μl, 10 minutes before the application of the capsaicin. […] During observation for 2 minutes following the instillation, the number of rubbing actions on the instilled eye by the ipsilateral front paw is counted for each animal.
For a given group, the percentage of protection is calculated as follows: […]

T1 sequence (O35433 whole entry): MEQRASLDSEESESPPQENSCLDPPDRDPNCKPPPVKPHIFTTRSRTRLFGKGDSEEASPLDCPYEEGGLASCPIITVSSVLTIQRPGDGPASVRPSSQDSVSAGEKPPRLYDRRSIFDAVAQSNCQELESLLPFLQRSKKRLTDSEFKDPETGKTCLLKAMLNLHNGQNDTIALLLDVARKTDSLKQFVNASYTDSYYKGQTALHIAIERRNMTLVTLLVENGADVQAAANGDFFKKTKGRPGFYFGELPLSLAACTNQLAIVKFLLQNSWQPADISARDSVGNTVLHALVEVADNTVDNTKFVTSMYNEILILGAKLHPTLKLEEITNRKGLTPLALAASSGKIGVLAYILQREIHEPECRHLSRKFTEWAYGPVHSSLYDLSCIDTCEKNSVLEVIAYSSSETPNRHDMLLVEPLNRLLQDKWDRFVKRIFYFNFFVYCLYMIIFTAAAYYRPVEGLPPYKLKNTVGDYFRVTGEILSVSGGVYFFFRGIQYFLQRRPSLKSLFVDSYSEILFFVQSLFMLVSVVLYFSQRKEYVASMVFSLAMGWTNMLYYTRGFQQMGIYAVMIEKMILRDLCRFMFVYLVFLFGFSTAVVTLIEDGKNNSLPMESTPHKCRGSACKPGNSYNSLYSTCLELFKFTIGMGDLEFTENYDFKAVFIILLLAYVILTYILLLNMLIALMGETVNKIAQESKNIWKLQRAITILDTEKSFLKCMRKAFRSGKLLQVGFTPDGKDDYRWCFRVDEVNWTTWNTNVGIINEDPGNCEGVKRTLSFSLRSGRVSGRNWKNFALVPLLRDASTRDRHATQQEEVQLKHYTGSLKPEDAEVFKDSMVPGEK
T2 sequence (Q704Y3 whole entry): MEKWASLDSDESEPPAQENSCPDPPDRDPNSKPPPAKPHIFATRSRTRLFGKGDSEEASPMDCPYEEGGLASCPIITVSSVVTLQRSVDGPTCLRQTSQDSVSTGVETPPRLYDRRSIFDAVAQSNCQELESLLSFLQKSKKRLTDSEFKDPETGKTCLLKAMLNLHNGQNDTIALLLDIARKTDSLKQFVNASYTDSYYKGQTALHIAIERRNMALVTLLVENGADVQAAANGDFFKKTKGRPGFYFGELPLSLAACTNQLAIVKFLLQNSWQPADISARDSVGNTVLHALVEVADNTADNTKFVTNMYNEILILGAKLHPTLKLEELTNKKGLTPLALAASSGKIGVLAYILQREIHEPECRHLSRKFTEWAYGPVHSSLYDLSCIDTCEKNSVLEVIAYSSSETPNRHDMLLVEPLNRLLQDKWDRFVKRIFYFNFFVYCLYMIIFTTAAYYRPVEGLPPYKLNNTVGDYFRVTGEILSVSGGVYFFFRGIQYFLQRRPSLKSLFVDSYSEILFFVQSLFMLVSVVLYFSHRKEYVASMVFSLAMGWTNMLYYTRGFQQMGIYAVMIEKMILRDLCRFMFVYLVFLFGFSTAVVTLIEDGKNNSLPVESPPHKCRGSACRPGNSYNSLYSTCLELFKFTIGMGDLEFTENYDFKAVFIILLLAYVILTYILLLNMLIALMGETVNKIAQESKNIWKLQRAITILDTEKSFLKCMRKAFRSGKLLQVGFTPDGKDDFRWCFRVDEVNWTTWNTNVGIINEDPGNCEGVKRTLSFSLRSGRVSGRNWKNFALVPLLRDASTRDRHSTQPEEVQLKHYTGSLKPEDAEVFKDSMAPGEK

| melting point | Structure (SMILES) | also measured |
| --- | --- | --- |
| 268 to 272 °C | CN(C)C1=CNN(NC(=O)c2cc3cc(C(F)(F)F)ccc3n2Cc2ccncc2)C=C1.Cl |  |
| 218 to 220 °C | CNc1cc(C)c(NC(=O)c2cc3cc(F)ccc3n2Cc2ccncc2)cn1 |  |
| 145 to 146 °C | Cc1cc(NC(=O)c2cc3cc(F)ccc3n2Cc2cccc(F)c2)cnc1N(C)C |  |
| 158 to 159 °C | CN(C)c1ncc(NC(=O)c2cc3cc(F)ccc3n2Cc2cccc(F)c2)cc1F |  |
| 255 to 267 °C | CN(C)C1=CNN(NC(=O)c2cc3ccc(C(F)(F)F)cc3n2Cc2cccc(F)c2)C=C1 |  |
| 138 to 139 °C | CN(C)C1=CNN(NC(=O)c2cc3cc(C(F)(F)F)ccc3n2Cc2cccc(F)c2)C=C1 |  |
| 232 to 234 °C | CN(C)c1ccc(NC(=O)c2cc3cc(F)ccc3n2Cc2cccc(F)c2)cn1.Cl |  |
| 293 to 295 °C | CC(=O)Nc1ccc(NC(=O)c2cc3ccc(C(F)(F)F)cc3n2Cc2cccc(F)c2)cn1 |  |
| 215 to 217 °C | CNc1cc(C)c(NC(=O)c2cc3cc(F)ccc3n2Cc2cccc(F)c2)cn1 |  |
| 229 to 230 °C | CNc1ccc(NC(=O)c2cc3cc(F)ccc3n2Cc2cccc(F)c2)c(C)n1 |  |
|  | CN(C)c1ccc(NC(=O)c2cc3cc(C(F)(F)F)ccc3n2Cc2cccc(F)c2)cn1 [Compound 12, N-[6-(dimethylamino)pyridin-3-yl]-5-trifluoromethyl-1-(3-fluorobenzyl)-1H-indole-2-carboxamide] | inhibition at 0.001 µM (TRPV1 receptor): 100% |
| 252 to 254 °C | CC(=O)Nc1ccc(NC(=O)c2cc3cc(F)ccc3n2Cc2cccc(F)c2)cn1 |  |
| 183 to 185 °C | Cc1cc(N(C)C)ncc1NC(=O)c1cc2cc(F)ccc2n1Cc1cccc(F)c1 |  |
| 142 to 143 °C | CN(C)c1ncc(NC(=O)c2cc3cc(F)ccc3n2Cc2cccc(F)c2)cc1C(F)(F)F |  |
| 220 to 222 °C | CNc1ccc(NC(=O)c2cc3cc(F)ccc3n2Cc2ccncc2)cn1 |  |
| 239 to 241 °C | CN(C)C1=CNN(NC(=O)c2cc3cc(F)ccc3n2Cc2cccc(F)c2)C=C1 (as salt: hydrochloride) |  |

| Structure (SMILES) | melting point | also measured |
| --- | --- | --- |
| Cc1cc(NC(=O)c2cc3cc(F)ccc3n2Cc2ccncc2)cnc1N(C)C [Compound 19, N-[6-dimethylamino-5-methylpyridin-3-yl]-5-fluoro-1-(pyridin-4-ylmethyl)-1H-indole-2-carboxamide] | 164 to 165 °C | inhibition at 0.01 µM (TRPV1 receptor): 33% |
| Cc1cc(N(C)C)ncc1NC(=O)c1cc2cc(F)ccc2n1Cc1ccncc1 [Compound 17, N-[6-dimethylamino-4-methylpyridin-3-yl]-5-fluoro-1-(pyridin-4-ylmethyl)-1H-indole-2-carboxamide] | 217 to 219 °C | inhibition at 0.01 µM (TRPV1 receptor): 60% |
| CNc1ccc(NC(=O)c2cc3cc(F)ccc3n2Cc2cccc(F)c2)cn1 [Compound 1, N-[6-(methylamino)pyridin-3-yl]-5-fluoro-1-(3-fluorobenzyl)-1H-indole-2-carboxamide] | 225 to 227 °C | inhibition at 0.001 µM (TRPV1 receptor): 53%; % P (percentage of protection) (TRPV1 receptors): 23% |

Source: US8227489B2, “N-(aminoheteroaryl)-1H-indole-2-carboxamide derivatives, preparation thereof and therapeutic use thereof” (Sanofi-Aventis, priority 2006, dated 2012)
